Experimental data from patent publication US20110045101A1, “FUNGICIDAL SUBSTITUTED AZOLES” (E.I. Du Pont De Nemours and Company, priority 2009, published 2011).
Marks after values point to notes of the source that are not given here.

Assays:
Assay type in all cases: in vivo
Details in all cases: 100 = 100% disease control
[1] = tested on: Puccinia recondita f. sp. tritici; assay: Test H: wheat leaf rust, test suspension sprayed after inoculation of wheat seedlings, visual disease rating
How it was run: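 Wheat seedlings inoculated with P. recondita spores, held 24 h saturated at 20 °C, then 2 days in growth chamber at 20 °C; compound suspension (acetone/water with Trem 014) sprayed to run-off afterwards. Rated visually; 200 ppm (≈500 g/ha) unless marked *, which denotes 40 ppm.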

[2] = tested on: Puccinia recondita f. sp. tritici; assay: Test I: wheat leaf rust on wheat seedlings, sprayed the day before inoculation, visual disease rating
How it was run: (§1)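 Plants received a run-off spray at 200 ppm (equivalent to 500 g/ha) or, for starred values, 40 ppm. Formulation used acetone at 3% of volume in a 50/50 acetone/water mix carrying 250 ppm Trem® 014.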

Septoria nodorum = assay: Test F: wheat glume blotch on wheat seedlings, sprayed the day before inoculation, visual disease rating
How it was run: as §1

[3] = tested on: Erysiphe graminis f. sp. tritici; assay: Test J: wheat powdery mildew on wheat seedlings, sprayed the day before inoculation, visual disease rating
How it was run: as §1

Botrytis cinerea = assay: Test C: tomato Botrytis on tomato seedlings, sprayed the day before inoculation, visual disease rating
How it was run: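 Rate: 200 ppm sprayed to run-off, corresponding to 500 g/ha; flagged values used 40 ppm. Vehicle was aqueous acetone (1:1) plus 250 ppm surfactant, compounds predissolved in acetone at 3% of volume. Plants were tomato seedlings.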

Septoria tritici = assay: Test G: wheat leaf blotch on wheat seedlings, sprayed the day before inoculation, visual disease rating
How it was run: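 Visual disease ratings taken 19 days after transfer to a 20° C growth chamber, following 48 h in saturated atmosphere at 24° C. Seedlings had been sprayed to run-off one day before spore inoculation. Dose 200 ppm, or 40 ppm where starred.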

Alternaria solani = assay: Test D: tomato early blight, sprayed the day before inoculation, visual disease rating
How it was run: as §1

[4] = 200 ppm, 0 = no control relative to controls

| Compound | Test H disease control rating [1, 4] [%] | Test I disease control rating [2, 4] [%] | Test F disease control rating (Septoria nodorum; [4]) [%] | Test J disease control rating [3, 4] [%] | Test C disease control rating (Botrytis cinerea; [4]) [%] | Test G disease control rating (Septoria tritici; [4]) [%] | Test D disease control rating (Alternaria solani; [4]) [%] | other results |
| --- | --- | --- | --- | --- | --- | --- | --- | --- |
| COc1cc(F)c(-c2c(Cl)nc(C)n2-c2ccc(C(F)(F)F)nc2)c(F)c1 [Compound 713, 5-[4-chloro-5-(2,6-difluoro-4-methoxyphenyl)-2-methyl-1H-imidazol-1-yl]-2-(trifluoromethyl)pyridine] | – | – | – | – | – | – | – | pest or weed control at 200 ppm ([1]; Puccinia recondita, 96 h, 200 ppm, 0 = no control relative to controls): 78%; pest or weed control at 200 ppm ([2]; Puccinia recondita, 168 h, 200 ppm, 0 = no control relative to controls): 100%; pest or weed control at 200 ppm (Septoria nodorum; Parastagonospora nodorum, 264 h, 200 ppm, 0 = no control relative to controls): 100%; pest or weed control at 200 ppm ([3]; Blumeria graminis, 168 h, 200 ppm, 0 = no control relative to controls): 100%; pest or weed control at 200 ppm (Botrytis cinerea; Botrytis cinerea, 120 h, 200 ppm, 0 = no control relative to controls): 100%; pest or weed control at 200 ppm (Septoria tritici; Zymoseptoria tritici, 504 h, 200 ppm, 0 = no control relative to controls): 100%; pest or weed control at 200 ppm (Alternaria solani; Alternaria solani, 168 h, 200 ppm, 0 = no control relative to controls): 100% |
| COc1ccc(F)c(-c2c(Cl)nc(Cl)n2-c2ccc(Cl)cc2)c1F [compound 309] | 11 | 100 | 100 | 100 | 100 | 97 | 100 | – |
| COc1cc(F)c(-c2c(Cl)nc(Br)n2-c2ccccc2)c(F)c1Br [compound 429] | 0 | 98 | 0 | 98 | 99 | 99 | 77 | – |
| Cc1nc(Cl)n(-c2ccc(Cl)c(F)c2)c1-c1c(F)ccc(F)c1Cl [compound 494] | – | – | – | – | – | – | – | Test H disease control rating ([1]; 40 ppm (marked *)): 0* %; Test I disease control rating ([2]; 40 ppm (marked *)): 99* %; Test F disease control rating (Septoria nodorum; 40 ppm (marked *)): 0* %; Test J disease control rating ([3]; 40 ppm (marked *)): 99* %; Test C disease control rating (Botrytis cinerea; 40 ppm (marked *)): 89* %; Test G disease control rating (Septoria tritici; 40 ppm (marked *)): 89* %; Test D disease control rating (Alternaria solani; 40 ppm (marked *)): 99* % |
| COc1cc(F)c(-n2c(Cl)nc(C)c2-c2ccc(Cl)nc2)c(F)c1 [Compound 696, 2-chloro-5-[2-chloro-1-(2,6-difluoro-4-methoxyphenyl)-4-methyl-1H-imidazol-5-yl]pyridine] | – | – | – | – | – | – | – | pest or weed control at 40 ppm ([1]; Puccinia recondita, 96 h, 40 ppm (marked *)): 99%; pest or weed control at 40 ppm ([2]; Puccinia recondita, 168 h, 40 ppm (marked *)): 99%; pest or weed control at 40 ppm (Septoria nodorum; Parastagonospora nodorum, 264 h, 40 ppm (marked *)): 100%; pest or weed control at 40 ppm ([3]; Blumeria graminis, 168 h, 40 ppm (marked *)): 100%; pest or weed control at 40 ppm (Botrytis cinerea; Botrytis cinerea, 120 h, 40 ppm (marked *)): 100%; pest or weed control at 40 ppm (Septoria tritici; Zymoseptoria tritici, 504 h, 40 ppm (marked *)): 99%; pest or weed control at 40 ppm (Alternaria solani; Alternaria solani, 168 h, 40 ppm (marked *)): 100% |
| COc1cc(F)c(-n2nnc(Cl)c2-c2ccc(Cl)cc2)c(F)c1 [compound 478] | 0 | 96 | 0 | 97 | 100 | 93 | 93 | – |
| COc1ccc(F)c(-c2c(Cl)nc(C)n2-c2ccc(C)c(F)c2)c1F [compound 590] | – | – | – | – | – | – | – | Test H disease control rating ([1]; 40 ppm (marked *)): 7* %; Test I disease control rating ([2]; 40 ppm (marked *)): 100* %; Test F disease control rating (Septoria nodorum; 40 ppm (marked *)): 94* %; Test J disease control rating ([3]; 40 ppm (marked *)): 100* %; Test C disease control rating (Botrytis cinerea; 40 ppm (marked *)): 100* %; Test G disease control rating (Septoria tritici; 40 ppm (marked *)): 96* %; Test D disease control rating (Alternaria solani; 40 ppm (marked *)): 100* % |
| Fc1ccc(F)c(-c2c(Br)nc(Br)n2-c2ccc(Cl)cc2)c1Cl [compound 374] | 0 | 90 | 0 | 98 | 99 | 94 | 99 | – |
| COc1ccc(F)c(-c2c(Cl)ncn2Cc2ccc(Cl)cc2)c1F [compound 270] | – | – | – | – | – | – | – | Test H disease control rating ([1]; 200 ppm, 0 = no control): 0%; Test I disease control rating ([2]; 200 ppm, 0 = no control): 99%; Test F disease control rating (Septoria nodorum; 200 ppm, 0 = no control): 98%; Test J disease control rating ([3]; 200 ppm, 0 = no control): 96%; Test C disease control rating (Botrytis cinerea; 200 ppm, 0 = no control): 100%; Test G disease control rating (Septoria tritici; 200 ppm, 0 = no control): 86%; Test D disease control rating (Alternaria solani; 200 ppm, 0 = no control): 100% |
| Cc1nc(Br)c(-c2ccc(Cl)c(F)c2)n1-c1ccc(F)cc1Cl [compound 340] | 0 | 94 | 0 | 95 | 99 | 92 | 98 | – |
